Publication doi:10.1101/2024.08.19.608619, “Discovery of potent SARS-CoV-2 nsp3 macrodomain inhibitors uncovers lack of translation to cellular antiviral response” (bioRxiv, 2024)
Where two headings read alike, the source gives them in different places.

Legend:
[1] = LogD; settings: pH 7.4; In vitro LogD
[2] = target: T1, SARS-CoV-2 nsp3-mac1 (Severe acute respiratory syndrome coronavirus 2, UniProt P0DTD1); assay: biochemical; design: SARS-CoV-2 nsp3 macrodomain TR-FRET single point, per cent inhibition, n=2
[3] = target: T1, SARS-CoV-2 nsp3-mac1; assay: biochemical; type: biochemical; settings: SARS-CoV-2 nsp3 macrodomain TR-FRET single point
[4] = read-out: perc_inhibition_mean, batch_name=ASAP-0000451-001
[5] = read-out: perc_inhibition_mean, batch_name=ASAP-0000452-001
[6] = read-out: perc_inhibition_mean, batch_name=ASAP-0000454-001
[7] = read-out: perc_inhibition_mean, batch_name=ASAP-0000455-001
[8] = read-out: perc_inhibition_mean, batch_name=ASAP-0000456-001
[9] = read-out: perc_inhibition_mean, batch_name=ASAP-0000457-001
[10] = read-out: perc_inhibition_mean, batch_name=ASAP-0000458-001
[11] = read-out: perc_inhibition_mean, batch_name=ASAP-0000459-001
[12] = read-out: perc_inhibition_mean, batch_name=ASAP-0000460-001
[13] = read-out: perc_inhibition_mean, batch_name=ASAP-0000461-001
[14] = read-out: perc_inhibition_mean, batch_name=ASAP-0000462-001
[15] = read-out: perc_inhibition_mean, batch_name=ASAP-0000463-001
[16] = read-out: perc_inhibition_mean, batch_name=ASAP-0000464-001
[17] = read-out: perc_inhibition_mean, batch_name=ASAP-0000465-001
[18] = read-out: perc_inhibition_mean, batch_name=ASAP-0000466-001

## O=C(O)C[C@H](NC(=O)c1ncnc2[nH]ccc12)c1ccc(Br)cc1 [ASAP-0000136]
[1]
  logd: 0.22

## O=C(O)c1ccc(C(=O)N2CCC(c3ccn4ncc(C(=O)N5CCCCC5)c4c3)CC2)o1 [ASAP-0000451]
[2]; [4]
  inhibition at 49.75 µM: 40.5%
  inhibition at 99.5 µM: 58.1%
[3]; concentration 49.75 uM
  perc_inhibition_mean: 40.495%
[3]; concentration 99.5 uM
  perc_inhibition_mean: 58.121%

## CC(C)[C@@H](Nc1ncnc2[nH]ccc12)C(F)F [ASAP-0000452]
[2]; [5]
  inhibition at 49.75 µM: 81.6%
  inhibition at 99.5 µM: 91.7%
[3]; concentration 49.75 uM
  perc_inhibition_mean: 81.614%
[3]; concentration 99.5 uM
  perc_inhibition_mean: 91.659%

## CC(C)[C@@H]1[C@H](O)CCN1c1ncnc2[nH]ccc12 [ASAP-0000454]
[2]; [6]
  inhibition at 49.75 µM: 17.7%
  inhibition at 99.5 µM: 32.2%
[3]; concentration 49.75 uM
  perc_inhibition_mean: 17.696%
[3]; concentration 99.5 uM
  perc_inhibition_mean: 32.152%

## CC(C)[C@@H](Nc1ncnc2[nH]ccc12)c1cccs1 [ASAP-0000455]
[2]; [7]
  inhibition at 49.75 µM: 84.7%
  inhibition at 99.5 µM: 89.9%
[3]; concentration 49.75 uM
  perc_inhibition_mean: 84.659%
[3]; concentration 99.5 uM
  perc_inhibition_mean: 89.893%

## O=C(O)c1cnc(C(=O)N2CCC(c3ccn4ncc(C(=O)N5CCCCC5)c4c3)CC2)cn1 [ASAP-0000456]
[2]; [8]
  inhibition at 49.75 µM: 27.5%
  inhibition at 99.5 µM: 46.4%
[3]; concentration 49.75 uM
  perc_inhibition_mean: 27.543%
[3]; concentration 99.5 uM
  perc_inhibition_mean: 46.435%

## Cn1nc(C(=O)O)cc1C(=O)N1CCC(c2ccn3ncc(C(=O)N4CCCCC4)c3c2)CC1 [ASAP-0000457]
[2]; [9]
  inhibition at 49.75 µM: 34.3%
  inhibition at 99.5 µM: 52.7%
[3]; concentration 49.75 uM
  perc_inhibition_mean: 34.252%
[3]; concentration 99.5 uM
  perc_inhibition_mean: 52.667%

## O=C(O)c1ccc2c(c1)ncn2-c1ccc(CNC(=O)c2ncnc3[nH]ccc23)cc1 [ASAP-0000458]
[2]; [10]
  inhibition at 49.75 µM: -33.4%
  inhibition at 99.5 µM: -4.65%
[3]; concentration 49.75 uM
  perc_inhibition_mean: -33.429%
[3]; concentration 99.5 uM
  perc_inhibition_mean: -4.649%

## O=C(C[C@@H](NC(=O)c1ncnc2[nH]ccc12)C1CC1)NCc1ccc(C(=O)O)cc1 [ASAP-0000459]
[2]; [11]
  inhibition at 49.75 µM: -9.86%
  inhibition at 99.5 µM: 0.768%
[3]; concentration 49.75 uM
  perc_inhibition_mean: -9.862%
[3]; concentration 99.5 uM
  perc_inhibition_mean: 0.768%

## C[C@@H](NC(=O)c1ncnc2[nH]ccc12)c1ncc(C(=O)O)c(=O)[nH]1 [ASAP-0000460]
[2]; [12]
  inhibition at 49.75 µM: 4.87%
  inhibition at 99.5 µM: 10.7%
[3]; concentration 49.75 uM
  perc_inhibition_mean: 4.872%
[3]; concentration 99.5 uM
  perc_inhibition_mean: 10.734%

## O=C(N[C@@H](C(=O)O)[C@@H](O)Cc1ccccc1)c1ncnc2[nH]ccc12 [ASAP-0000461]
[2]; [13]
  inhibition at 49.75 µM: 3.79%
  inhibition at 99.5 µM: 12.3%
[3]; concentration 49.75 uM
  perc_inhibition_mean: 3.789%
[3]; concentration 99.5 uM
  perc_inhibition_mean: 12.267%

## CC(C)[C@@H](Nc1ncnc2[nH]ccc12)C(N)=O [ASAP-0000462]
[2]; [14]
  inhibition at 49.75 µM: 64.4%
  inhibition at 99.5 µM: 77.7%
[3]; concentration 49.75 uM
  perc_inhibition_mean: 64.403%
[3]; concentration 99.5 uM
  perc_inhibition_mean: 77.698%

## Cn1cc([C@@H](Nc2ncnc3[nH]ccc23)C2CCC2)cn1 [ASAP-0000463]
[2]; [15]
  inhibition at 49.75 µM: 78.1%
  inhibition at 99.5 µM: 91%
[3]; concentration 49.75 uM
  perc_inhibition_mean: 78.069%
[3]; concentration 99.5 uM
  perc_inhibition_mean: 91.032%

## C[C@@H](Cc1ccc(Cl)s1)Nc1ccc([C@@H](CC(=O)O)NC(=O)c2c[nH]c3ncncc23)cc1 [ASAP-0000464]
[2]; [16]
  inhibition at 49.75 µM: -1.54%
  inhibition at 99.5 µM: 1.95%
[3]; concentration 49.75 uM
  perc_inhibition_mean: -1.543%
[3]; concentration 99.5 uM
  perc_inhibition_mean: 1.952%

## CC(C)[C@H]1CN(c2ncnc3[nH]ccc23)[C@H]1C(C)C [ASAP-0000465]
[2]; [17]
  inhibition at 49.75 µM: 0.348%
  inhibition at 99.5 µM: -2.2%
[3]; concentration 49.75 uM
  perc_inhibition_mean: 0.348%
[3]; concentration 99.5 uM
  perc_inhibition_mean: -2.201%

## CC(C)[C@@H](CCN(C)C(=O)c1nn2cccnc2c1Cl)Nc1ncnc2[nH]ccc12 [ASAP-0000466]
[2]; [18]
  inhibition at 49.75 µM: 0.844%
  inhibition at 99.5 µM: 1.65%
[3]; concentration 49.75 uM
  perc_inhibition_mean: 0.844%
[3]; concentration 99.5 uM
  perc_inhibition_mean: 1.645%
